Laboratory results as given in patent US4820695A, “C-20-dihydro-deoxy-(cyclic amino)-derivatives of macrolide antibiotics” (priority 1987, dated 1989).
In brackets after ≈: the same amount, converted by molar mass. Like-named read-outs stand apart in the source and are kept apart here.

What was measured:
Escherichia coli EC14 = assay: MIC, standard agar-dilution assay (Table IX); assay type: cell-based
Klebsiella X26 = assay: MIC, standard agar-dilution assay (Table IX); assay type: cell-based
Escherichia coli TEM = assay: MIC, standard agar-dilution assay (Table IX); assay type: cell-based
[1] = tested on: Staphylococcus aureus V41; assay: MIC, standard agar-dilution assay (Table IX); assay type: cell-based; conditions: Staphylococcus aureus V41, Penicillin-resistant strain
[2] = tested on: Staphylococcus aureus X400; assay: MIC, standard agar-dilution assay (Table IX); assay type: cell-based; conditions: Staphylococcus aureus X400, Methicillin-resistant strain
[3] = tested on: Streptococcus Group D X66; assay: MIC, standard agar-dilution assay (Table IX); assay type: cell-based
[4] = tested on: Streptococcus pneumoniae Park I; assay: MIC, standard agar-dilution assay (Table IX); assay type: cell-based
[5] = tested on: Streptococcus pyogenes C203; assay: MIC, standard agar-dilution assay (Table IX); assay type: cell-based
[6] = tested on: Staphylococcus aureus S13E; assay: MIC, standard agar-dilution assay (Table IX); assay type: cell-based
[7] = Titratable groups in 66% aqueous DMF (Tables XIV-XVI); assay type: physicochemical
Text: ^c Run in 66% aqueous DMF
^d Run in 66% aqueous DMF

[8] = tested on: Pasteurella hemolytica 22C; assay: MIC, broth-dilution microtiter test (Table X); assay type: cell-based
Text: (§1) The MIC's in Table X were obtained using conventional broth-dilution microtiter tests.

[9] = tested on: Pasteurella multocida 17E; assay: MIC, broth-dilution microtiter test (Table X); assay type: cell-based; conditions: Bovine isolate
Text: as §1

Staphylococcus aureus = assay: MIC, broth-dilution microtiter test (Table X); assay type: cell-based
Text: as §1

[10] = tested on: Mycoplasma hyopneumoniae S5972; assay: MIC, broth-dilution microtiter test (Table X); assay type: cell-based
Text: as §1

[11] = tested on: Mycoplasma gallisepticum 29C; assay: MIC, broth-dilution microtiter test (Table X); assay type: cell-based
Text: as §1

Mycoplasma synoviae 40A = assay: MIC, broth-dilution microtiter test (Table X); assay type: cell-based
Text: as §1

Mycoplasma hyorhinis 29E = assay: MIC, broth-dilution microtiter test (Table X); assay type: cell-based
Text: as §1

Streptococcus sp. 19F = assay: MIC, broth-dilution microtiter test (Table X); assay type: cell-based
Text: as §1

[12] = tested on: Pasteurella multocida 60A; assay: MIC, broth-dilution microtiter test (Table X); assay type: cell-based; conditions: Avian isolate
Text: as §1

[13] = tested on: Haemophilus influenzae C.L.; assay: MIC, standard agar-dilution assay (Table IX); assay type: cell-based; conditions: Ampicillin-sensitive strain
[14] = tested on: Staphylococcus epidermidis 222; assay: MIC, standard agar-dilution assay (Table IX); assay type: cell-based
[15] = tested on: Haemophilus influenzae 76; assay: MIC, standard agar-dilution assay (Table IX); assay type: cell-based; conditions: Haemophilus influenzae 76, Ampicillin-resistant strain
[16] = tested on: Staphylococcus epidermidis EPI1; assay: MIC, standard agar-dilution assay (Table IX); assay type: cell-based
Staphyloccus aureus X1.1 = assay: MIC, standard agar-dilution assay (Table IX); assay type: cell-based, Staphylococcus aureus
Pasteurella multocida [17] = assay: Pasteurella infection in one-day-old chicks, subcutaneous administration (Table XII); assay type: in vivo; conditions: Administered subcutaneously, 30 mg/kg × 2, 1 and 4 hours post-challenge
Description: (§2) Many of the C-20 modified derivatives of this invention have also shown in vivo antibacterial activity against infections induced by gram-negative bacteria. Tables XII and XIII summarize the results of tests in which illustrative compounds were evaluated against a Pasteurella infection in one-day-old chicks. The compounds were administered parenterally or orally after challenge of the chicks with Pasteurella multocida (0.1 ml of a 10^-4 dilution of a twenty-hour tryptose broth culture of an avian P. multocida given subcutaneously). In these tests, unless indicated otherwise, all non-medicated infected chicks died within 24 hours of Pasteurella challenge. In the tests summarized in Table XII, the compounds were administered by subcutaneous injection at a dosage of 30 mg/kg, 1 and 4 hours post-challenge of the chicks with P. multocida. In the tests summarized in Table XIII the compounds were administered in medicated drinking water (at a level of 2 g/gal) available from 4 to 20 hours prior to challenge of the chicks with P. multocida and during the 3 -day test period.
^a Administered subcutaneously; 30 mg/kg × 2

Escherichia coli N10 = assay: MIC, standard agar-dilution assay (Table IX); assay type: cell-based
[18] = tested on: Streptococcus Group D 2041; assay: MIC, standard agar-dilution assay (Table IX); assay type: cell-based
Pasteurella multocida [19] = assay: Pasteurella infection in one-day-old chicks, medicated drinking water (Table XIII); assay type: in vivo; conditions: Administered in the available drinking water at 2 g/gal
Description: as §2
^a Administered in the available drinking water at a concentration of […]

[20] = tested on: Streptococcus pyogenes C203; assay: ED50 in mice experimentally infected with S. pyogenes C203 (Table XI); assay type: in vivo; conditions: Streptococcus pyogenes, doses given 1 and 4 hours postinfection, read-out: ED50
Description: The C-20 modified derivatives of this invention have shown in vivo antimicrobial activity against experimentally-induced infections in laboratory animals. When two doses of test compound were administered to mice experimentally infected with S. pyogenes C203, the activity observed was measured as an ED50 value [effective dose in mg/kg to protect 50% of the test animals: see Warren Wick, et al., J. Bacteriol. 81, 233-235 (1961)].
^a mg/kg × 2; doses given 1 and 4 hours postinfection

[21] = Titratable groups (first value)
[22] = Mesomycoplasma hyopneumoniae, read-out: MIC
[23] = Mycoplasmoides gallisepticum, read-out: MIC
[24] = Mycoplasmopsis synoviae, read-out: MIC
[25] = Staphylococcus aureus, read-out: MIC

## CCC1OC(=O)CC(O)C(C)C(OC2OC(C)C(O)C(N(C)C)C2O)C(CCN2CCC(C)CC(C)(C)C2)CC(C)C(=O)C=CC(C)=CC1COC1OC(C)C(O)C(OC)C1OC (single isomer, unassigned) [Compound D24, 20-DH-DO-20-(3,3,5-Trimethylhexahydroazepin-1-yl)desmycosin]
Escherichia coli EC14
  MIC: 64 µg/mL (≈ 71.3 µM)
Klebsiella X26
  MIC: 128 µg/mL (≈ 143 µM)
Escherichia coli TEM
  MIC: 32 µg/mL (≈ 35.7 µM)
[1]
  MIC: 0.5 µg/mL (≈ 0.557 µM)
[2]
  MIC: 1 µg/mL (≈ 1.11 µM)
[3]
  MIC: 4 µg/mL (≈ 4.46 µM)
[4]; Streptococcus pneumoniae Park I, agar-dilution
  MIC: 1 µg/mL (≈ 1.11 µM)
[5]
  MIC: 0.25 µg/mL (≈ 0.279 µM)
[6]; Staphylococcus aureus S13E, agar-dilution
  MIC: 0.5 µg/mL (≈ 0.557 µM)
[7]
  Titratable groups: 9.4
  Titratable groups (first value): 7.9
[8]
  MIC: 6.25 µg/mL (≈ 6.97 µM)
[9]
  MIC: 12.5 µg/mL (≈ 13.9 µM)
Staphylococcus aureus
  MIC: 3.12 µg/mL (≈ 3.48 µM)
[10]
  MIC: 0.78 µg/mL (≈ 0.869 µM)
[11]
  MIC: 0.39 µg/mL (≈ 0.435 µM)
Mycoplasma synoviae 40A
  MIC: 0.097 µg/mL (≈ 0.108 µM)
Mycoplasma hyorhinis 29E
  MIC: 25 µg/mL (≈ 27.9 µM)
Streptococcus sp. 19F
  MIC: 3.12 µg/mL (≈ 3.48 µM)
[12]
  MIC: 6.25 µg/mL (≈ 6.97 µM)
[13]
  MIC: 32 µg/mL (≈ 35.7 µM)
[14]
  MIC: 0.25 µg/mL (≈ 0.279 µM)
[15]
  MIC: 8 µg/mL (≈ 8.92 µM)
[16]; Staphylococcus epidermidis EPI1, agar-dilution
  MIC: 0.5 µg/mL (≈ 0.557 µM)
Staphyloccus aureus X1.1
  MIC: 0.5 µg/mL (≈ 0.557 µM)
Pasteurella multocida [17]
  Number of Deaths/Number Treated: 2/10
Escherichia coli N10
  MIC: 64 µg/mL (≈ 71.3 µM)
[18]
  MIC: 8 µg/mL (≈ 8.92 µM)

## CCC1OC(=O)CC(O)C(C)C(OC2OC(C)C(O)C(N(C)C)C2O)C(CCN2CC3CCC(CC3)C2)CC(C)C(=O)C=CC(C)=CC1COC1OC(C)C(O)C(OC)C1OC (stereo not shown) [Compound D14, 20-DH-DO-20-[3-azabicyclo[3.2.2]nonan-3-yl]desmycosin]
Escherichia coli EC14; read-out: MIC
  MIC: 32 µg/mL (≈ 36.3 µM)
Klebsiella X26; read-out: MIC
  MIC: 8 µg/mL (≈ 9.08 µM)
Escherichia coli TEM; read-out: MIC
  MIC: 16 µg/mL (≈ 18.2 µM)
[1]; read-out: MIC
  MIC: 0.25 µg/mL (≈ 0.284 µM)
Pasteurella multocida [19]
  Number of Deaths/Number Treated: 0/10
[2]; read-out: MIC
  MIC: 0.5 µg/mL (≈ 0.567 µM)
[20]; C203, Oral
  ED50: 50 mg/kg
[20]; C203, sc, Subcutaneous
  ED50: 1 mg/kg
[3]; read-out: MIC
  MIC: 4 µg/mL (≈ 4.54 µM)
[4]; Streptococcus pneumoniae
  MIC: 0.5 µg/mL (≈ 0.567 µM)
[6]; Staphylococcus aureus, S13E
  MIC: 0.25 µg/mL (≈ 0.284 µM)
[7]; Titratable groups
  pKa: 9.2
[7]; [21]
  pKa: 7.9
[8]; read-out: MIC
  MIC: 1.56 µg/mL (≈ 1.77 µM)
[9]; read-out: MIC
  MIC: 3.12 µg/mL (≈ 3.54 µM)
Staphylococcus aureus; read-out: MIC
  MIC: 0.78 µg/mL (≈ 0.885 µM)
[10]; [22]
  MIC: 0.78 µg/mL (≈ 0.885 µM)
[11]; [23]
  MIC: 1.56 µg/mL (≈ 1.77 µM)
Mycoplasma synoviae 40A; [24]
  MIC: 0.39 µg/mL (≈ 0.443 µM)
Mycoplasma hyorhinis 29E; read-out: MIC
  MIC: 50 µg/mL (≈ 56.7 µM)
Streptococcus sp. 19F; read-out: MIC
  MIC: 1.56 µg/mL (≈ 1.77 µM)
[12]; read-out: MIC
  MIC: 3.12 µg/mL (≈ 3.54 µM)
[13]; read-out: MIC
  MIC: 4 µg/mL (≈ 4.54 µM)
[14]; read-out: MIC
  MIC: 0.12 µg/mL (≈ 0.136 µM)
[15]; read-out: MIC
  MIC: 8 µg/mL (≈ 9.08 µM)
[16]; Staphylococcus epidermidis, EPI1
  MIC: 0.5 µg/mL (≈ 0.567 µM)
Staphyloccus aureus X1.1; [25]
  MIC: 0.25 µg/mL (≈ 0.284 µM)
Pasteurella multocida [17]
  Number of Deaths/Number Treated: 2/10
Escherichia coli N10; read-out: MIC
  MIC: 32 µg/mL (≈ 36.3 µM)
[18]; GROUPD2041, read-out: MIC
  MIC: 4 µg/mL (≈ 4.54 µM)

## CCC1OC(=O)CC(O)C(C)C(OC2OC(C)C(O)C(N(C)C)C2O)C(CCN2CCCC3CCCCC32)CC(C)C(=O)C=CC(C)=CC1COC1OC(C)C(O)C(OC)C1OC (stereo not shown) [Compound D20, 20-DH-DO-20-(decahydroquinolin-1-yl)desmycosin]
Escherichia coli EC14; read-out: MIC
  MIC: 128 µg/mL (≈ 143 µM)
Klebsiella X26; read-out: MIC
  MIC: 16 µg/mL (≈ 17.9 µM)
Escherichia coli TEM; read-out: MIC
  MIC: 32 µg/mL (≈ 35.7 µM)
[1]; read-out: MIC
  MIC: 0.5 µg/mL (≈ 0.559 µM)
Pasteurella multocida [19]
  Number of Deaths/Number Treated: 0/10
[2]; read-out: MIC
  MIC: 0.5 µg/mL (≈ 0.559 µM)
[20]; C203, Oral
  ED50: 34 mg/kg
[20]; C203, sc, Subcutaneous
  ED50: 1.7 mg/kg
[3]; read-out: MIC
  MIC: 8 µg/mL (≈ 8.94 µM)
[4]; Streptococcus pneumoniae Park I, agar-dilution, read-out: MIC
  MIC: 0.12 µg/mL (≈ 0.134 µM)
[5]; read-out: MIC
  MIC: 0.25 µg/mL (≈ 0.279 µM)
[6]; Staphylococcus aureus, S13E
  MIC: 0.5 µg/mL (≈ 0.559 µM)
[7]; Titratable groups
  pKa: 9.4
[7]; [21]
  pKa: 7.9
[8]; read-out: MIC
  MIC: 3.12 µg/mL (≈ 3.49 µM)
[9]; read-out: MIC
  MIC: 3.12 µg/mL (≈ 3.49 µM)
Staphylococcus aureus; read-out: MIC
  MIC: 0.78 µg/mL (≈ 0.871 µM)
[10]; [22]
  MIC: 0.78 µg/mL (≈ 0.871 µM)
[11]; [23]
  MIC: 0.78 µg/mL (≈ 0.871 µM)
Mycoplasma synoviae 40A; [24]
  MIC: 0.195 µg/mL (≈ 0.218 µM)
Mycoplasma hyorhinis 29E; read-out: MIC
  MIC: 50 µg/mL (≈ 55.9 µM)
Streptococcus sp. 19F; read-out: MIC
  MIC: 3.12 µg/mL (≈ 3.49 µM)
[12]; read-out: MIC
  MIC: 3.12 µg/mL (≈ 3.49 µM)
[13]; read-out: MIC
  MIC: 16 µg/mL (≈ 17.9 µM)
[14]; read-out: MIC
  MIC: 0.25 µg/mL (≈ 0.279 µM)
[15]; read-out: MIC
  MIC: 16 µg/mL (≈ 17.9 µM)
[16]; Staphylococcus epidermidis EPI1, agar-dilution, read-out: MIC
  MIC: 0.5 µg/mL (≈ 0.559 µM)
Staphyloccus aureus X1.1; [25]
  MIC: 0.5 µg/mL (≈ 0.559 µM)
Escherichia coli N10; read-out: MIC
  MIC: 128 µg/mL (≈ 143 µM)
[18]; GROUPD2041, read-out: MIC
  MIC: 8 µg/mL (≈ 8.94 µM)
